Data on four compounds can be found in patent US20260345647A1, “AST-3424 COMBINATION FOR TREATING LEUKEMIA AND LYMPHOMA” (ASCENTAWITS PHARMACEUTICALS, LTD., priority 2022, published 2026).

The subject of series [1] is Jurkat, Clone E6-1 cells. The series is described as follows: In vitro cell proliferation assay, combination therapy (CellTiter-Glo). In kind it is cell-based, human. The following applies: 0.64 nM and 16 nM AST-3424. The method, then:
(§1) On day 1, cells were seeded in 96-well cell culture plates (at 180 μL/well).
(§2) On day 2, 10 μL of a 20-fold test concentration of the AST-3424 solution (20-fold concentration of either of the two concentrations IC25 and IC10) was added. The cell plates were gently agitated, and were then placed in an incubator at 37 °C for further culture.
(§3) On day 3, to the combination therapy wells was added 10 μL of a 20-fold test concentration of the compound (cytarabine or daunorubicin) (20-fold concentration of each of the three concentrations IC50, IC25, and ICs), and to the monotherapy wells was added 10 μL of a culture medium containing 2% DMSO. The cell plates were gently agitated, and were then placed in an incubator at 37 °C for further 72 h.
(§4) After incubation, a reagent prepared according to the instructions for the CellTiter-Glo Reagent was added (at 50 μL/well). The cell plates were agitated thoroughly and were then incubated at room temperature in the dark for 10 minutes.
(§5) The cell plate was placed in a plate reader for analysis to detect chemiluminescence and record the data.
(§6) The readings in each well should be converted into cell viability, which was calculated by the formula as described in section 1.1.
(§7) The final viability percentages under different conditions were plotted into column charts.

For series [2], the system named is PF-382 cells. The series is described as above. In kind it is cell-based, human. The following applies: 0.64 and 2.5 nM AST-3424. How it is done:
as §1, §2, §3, §4, §5, §6, §7

In series [3] the test system is CCRF-CEM cells. The description is as above. The following applies: 0.1 nM and 1 nM AST-3424. In kind it is cell-based, human. The method, then: as §1, §2, §3, §4, §5, §6, §7
Series [4] has as its system SUP-T1 cells. The description is as above. Format: cell-based, human. The note with it: 0.13 nM and 1 nM AST-3424. How it is done:
as §1, §2, §3, §4, §5, §6, §7

In series [5] the test system is MOLT-4 cells. The series is described as above. Format: cell-based, human. The method, then:
as §1, §2, §3, §4, §5, §6, §7

Another series relates to PLC/PRF/5. The note with it: PLC/PRF/5, high AKR1C3 expression; cited from earlier work.
Series [6] relates to liver cancer cells. The following applies: flow cytometry; cited from earlier work.
In another series the test system is HepG2. The following applies: HepG2, high AKR1C3 expression; cited from earlier work.
For series [7], the system named is Jurkat, Clone E6-1 cells. Description: In vitro cell proliferation assay, monotherapy (CellTiter-Glo). Format: cell-based. The note with it: Homo sapiens. How it is done:
as §1
(§8) On day 2, 20 μL of a 10-fold test concentration of the working solution of the compound (AST-3424) was added. The cell plates were gently agitated, and were then placed in an incubator at 37 °C for further culture.
(§9) On day 3, 20 μL of a 10-fold test concentration of the solution of the compound (cytarabine and daunorubicin) was added. The cell plates were gently agitated, and were then placed in an incubator at 37 °C for further 72 hours.
(§10) After incubation, to the cell plates was added a reagent prepared according to the Protocol for a […] CellTiter-Glo Reagent (50 μL/well). The plates were thoroughly agitated and were then incubated at room temperature in the dark for 10 minutes.
(§11) The cell plates were placed in a plate reader for analysis to detect chemiluminescence and record the data.
(§12) The readings in each well should be converted into cell viability, which was calculated by the following formula:
(§13) • 1. MOLT-4 and MOLT-3 were derived from a patient with acute lymphoblastic leukemia in relapse who had previously received polydrug combination chemotherapy. The MOLT-4 cell line was originated from T lymphocytes, wherein there is a G→A mutation in Codon 248 of the p53 gene with no expression of p53, immunoglobulin or Epstein-Barr virus, resulting in high levels of terminal deoxyribosyl transferase, and expression of CD1 (49%), CD2 (35%), CD3 A (26%) B (33%) C (34%), CD4 (55%), CD5 (72%), CD6 (22%), and CD7 (77%). The cell is a human acute lymphoblastic leukemia cell, and the corresponding disease is human T-cell acute lymphoblastic leukemia, or T-ALL. • 2. PF-382 is a human T-cell acute lymphoblastic leukemia cell, and the corresponding disease is human T-cell acute lymphoblastic leukemia, or T-ALL. • 3. Jurkat, Clone E6-1 is a clone of the Jurkat-FHCRC cell line, a derivative of the Jurkat cell line, which was established from the peripheral blood of a patient suffering from T-cell acute leukemia. It is a human T lymphocytic leukemia cell, and the corresponding disease is T-ALL. • 4. SUP-T1 is a human T lymphoblastoma cell, and the corresponding disease is T-cell Lymphoblastic Lymphoma (T-LBL). • 5. CCRF-CEM is a human acute lymphoblastic leukemia, T lymphocyte serum culture cell, which was obtained in November 1964 from the peripheral blood leukocytes of a patient suffering from acute lymphoblastic leukemia. The cell is a human T-cell acute lymphoblastic leukemia cell, and the corresponding disease is T-cell acute lymphoblastic leukemia, or T-ALL.

For series [8], the system named is PF-382 cells. Described as above. Format: cell-based. The following applies: Homo sapiens. The method, then: as §1, §8, §9, §10, §11, §12, §13
Series [9] relates to CCRF-CEM cells. The description is as above. The note with it: Homo sapiens. In kind it is cell-based. The method, then:
as §1, §8, §9, §10, §11, §12, §13

Series [10] has as its system SUP-T1 cells. Described as above. The following applies: Homo sapiens. In kind it is cell-based. The method, then: as §1, §8, §9, §10, §11, §12, §13
The subject of series [11] is MOLT-4 cells. Described as above. In kind it is cell-based. The following applies: Homo sapiens. How it is done: as §1, §8, §9, §10, §11, §12, §13
Another series concerns tumor cells. The note with it: Transwell; MMP-9; cited from earlier work.
In series [12] the test system is five cell lines including CCRF-CEM, PF-382, Jurkat, Clone E6-1, SUP-T1, and MOLT-4. The series is described as follows: In vitro cell proliferation assay, monotherapy, summary over five cell lines. In kind it is cell-based, human. The following applies: for inhibitory effects on cell proliferation: monotherapy, five cell lines. The method, then: as §1, §8, §9, §10, §11, §12, §13

In a further series the test system is TGF-β signaling pathway. The following applies: cited from earlier work.
Another series relates to cancer cells. The note with it: cited from earlier work.
Series [13] concerns liver cancer cells. The note with it: flow cytometry; Bax, Caspase3, PARP; cited from earlier work.
The conditions of series [14]: cited from earlier work.
Series [15] is described as follows: Clinical plasma concentration (dose comparison and conversion). In kind it is in vivo. The text has this: Both daunorubicin and cytarabine are drugs used in clinical practice to treat leukemia or other tumors.
The subject of series [16] is acute lymphoblastic leukemia. The following applies: cited from earlier work.
Series [17] has as its system neuroblastoma and rhabdomyosarcoma. The note with it: cited from earlier work.
Where [18] appears, read: experiments that were conducted previously, read-out: IC50 (superscript 2).
Where [19] appears, read: monotherapy, 72 hours, read-out: IC50.

“Also recorded” adds a separate entry of the source. Where a name gives a salt, the structure may show the parent alone. Read-outs that look alike come from different tables or passages of the source.

In the case of `C[C@H](OP(=O)(N1CC1)N1CC1)c1ccc([N+](=O)[O-])c(Oc2cccc(C(=O)N(C)C)c2)c1` [AST-3424], the “effect on proliferation, AST-3424 monotherapy” value in the series on Jurkat, Clone E6-1 cells [1] was “no significant effect”; with PF-382 cells [2] it was “no significant effect”; in the series on CCRF-CEM cells [3], “no effect”; in the series on SUP-T1 cells [4] it was “no effect”; in the series on MOLT-4 cells [5] (3.2 nM and 6.4 nM AST-3424), “no significant effect”. The inhibitory effects entry in the series on PLC/PRF/5 and with HepG2 was “excellent inhibitory effects” each time. Also, in the series with liver cancer cells [6], the cell cycle block entry was “could block the cells in the S phase”. The IC50 in the series on Jurkat, Clone E6-1 cells [7] (setting [18]) worked out at 24 nM; in the series with Jurkat, Clone E6-1 cells [7] (setting [19]) it was 4620 nM; in the series with PF-382 cells [8] (setting [18]) it was 3 nM; in the series on PF-382 cells [8] (setting [19]), 4.09 nM; in the series with CCRF-CEM cells [9] (setting [18]) it was 14.9 nM; in the series on CCRF-CEM cells [9] (setting [19]), 3.68 nM. Further, the IC50 was found to be 3.7 nM in the series with SUP-T1 cells [10] (setting [18]), 2.47 nM with SUP-T1 cells [10] (setting [19]), 10 nM with MOLT-4 cells [11] (setting [18]) and 8.04 nM in the series on MOLT-4 cells [11] (setting [19]). The “migration and invasion of tumor cells” value in the series on tumor cells was “could inhibit the migration and invasion of tumor cells”. In addition, the “in vitro cytotoxicity compared with daunorubicin and cytarabine” value in series [12] (four cell lines except Jurkat, Clone E6-1) was “superior to that of daunorubicin and cytarabine”. Besides, in series [12], the “inhibitory effects on cell proliferation” value is “good inhibitory effects”. Moreover, the “effect on TGF-β signaling pathway / proliferation” value in the series on TGF-β signaling pathway is given as “could reduce the proliferation effect by inhibiting the TGF-β signaling pathway”. Besides, the “toxicity to cancer cells” value in the series on cancer cells (AST-3424 itself (prodrug)) is given as “low toxicity to cancer cells”. Further, in the series with cancer cells (animal models and in vitro pharmacological experiments), the “dependence of potency on AKR1C3 expression level” value is listed as “dependent on the level of AKR1C3 expression; also recorded: positively correlated with AKR1C3 expression levels”. Moreover, the apoptosis induction result in the series on liver cancer cells [13] is “may induce apoptosis by upregulating Bax and Caspase3 proteins and downregulating the PARP protein”.
For `Nc1ccn([C@@H]2O[C@H](CO)[C@@H](O)[C@@H]2O)c(=O)n1` [Cytarabine, cytarabine, reference compound], in [14] (1.8-3 g/m^2, administration with 12 times, steady concentration), the Steady plasma concentration was 8 to 24 µg/mL. The IC50 in the series on Jurkat, Clone E6-1 cells [7] (setting [19]) was 100 nM; with PF-382 cells [8] (setting [19]), 26.4 nM; with CCRF-CEM cells [9] (setting [19]) it was 82.2 nM; in the series on SUP-T1 cells [10] (setting [19]), 856 nM; in the series with MOLT-4 cells [11] (setting [19]) it was 120 nM. In addition, the concentration in series [15] (1.8-3 g/m^2, administration with 12 times, converted from steady concentration, read-out: Molar concentration after conversion (steady concentration)) is 32 to 97 µM. The “inhibitory effects on cell proliferation” value in series [12] is listed as “good inhibitory effects”.
With `COc1cccc2c1C(=O)c1c(O)c3c(c(O)c1C2=O)C[C@@](O)(C(C)=O)C[C@@H]3O[C@H]1C[C@H](N)[C@H](O)[C@H](C)O1` [Daunorubicin hydrochloride, daunorubicin hydrochloride, reference compound], the IC50 with Jurkat, Clone E6-1 cells [7] (setting [19]) was 41 nM; in the series on PF-382 cells [8] (setting [19]), 14.2 nM; with CCRF-CEM cells [9] (setting [19]), 30.7 nM; in the series on SUP-T1 cells [10] (setting [19]), 30.6 nM; with MOLT-4 cells [11] (setting [19]), 24.2 nM.
Take `COc1cccc2c1C(=O)c1c(O)c3c(c(O)c1C2=O)C[C@@](O)(C(C)=O)C[C@@H]3O[C@H]1C[C@H](N)[C@H](O)[C@H](C)O1` [daunorubicin]: the “Plasma Cmax” value in [14] (44 mg/m^2, administration on day 1, 3, 5, Cmax) is 26 µg/mL. In addition, in the series on MOLT-4 cells [5] (40 nM daunorubicin), the “potency on cell proliferation, daunorubicin” value is “very significant potency”. For the same compound, in [16] (acute lymphoblastic leukemia), the remission rate entry is given as “high remission rate”. The side effects result in series [16] (clinical use) was “severe side effects”. In series [15] (human, plasma, 44 mg/m^2, administration on day 1, 3, 5, converted from Cmax, read-out: Molar concentration after conversion (Cmax)), the Cmax amounted to 49 µM. Moreover, the therapeutic effects result in series [17] is reported as “excellent therapeutic effects”. In addition, in [12], the “inhibitory effects on cell proliferation” value is “good inhibitory effects”.
